Assay results published in patent US11332443B2, “Derivatives of halo quinabactin” (THE REGENTS OF THE UNIVERSITY OF CALIFORNIA, priority 2015, dated 2022).

Tests used:
Type in all cases: biochemical
PYR1-HAB1 = target: T1, PYR1-HAB1 (Arabidopsis thaliana, UniProt O49686); test: PP2C activity assay, PYR1-HAB1 inhibition; settings: for activity at 0.2 µM: 200 nM test compound, 100 nM HAB1 PP2C, 200 nM receptor, read-out: % Inhibition of PYR/PYL-HAB1 at 200 nM: PYR1; for IC50: dose response in triplicate, non-linear regression
T1 construct: 6xHis (N); made in house; host or cells: E. coli BL21[DE3]pLysS (stated for GST-HAB1)
T1 sequence (O49686 1-191): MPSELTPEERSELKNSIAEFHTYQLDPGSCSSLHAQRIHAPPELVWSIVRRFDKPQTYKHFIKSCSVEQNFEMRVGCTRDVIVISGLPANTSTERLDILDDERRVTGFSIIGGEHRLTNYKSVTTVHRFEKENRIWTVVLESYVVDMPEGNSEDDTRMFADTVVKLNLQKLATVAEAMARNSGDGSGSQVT
T1 sequence (Q9CAJ0 23-511 partner): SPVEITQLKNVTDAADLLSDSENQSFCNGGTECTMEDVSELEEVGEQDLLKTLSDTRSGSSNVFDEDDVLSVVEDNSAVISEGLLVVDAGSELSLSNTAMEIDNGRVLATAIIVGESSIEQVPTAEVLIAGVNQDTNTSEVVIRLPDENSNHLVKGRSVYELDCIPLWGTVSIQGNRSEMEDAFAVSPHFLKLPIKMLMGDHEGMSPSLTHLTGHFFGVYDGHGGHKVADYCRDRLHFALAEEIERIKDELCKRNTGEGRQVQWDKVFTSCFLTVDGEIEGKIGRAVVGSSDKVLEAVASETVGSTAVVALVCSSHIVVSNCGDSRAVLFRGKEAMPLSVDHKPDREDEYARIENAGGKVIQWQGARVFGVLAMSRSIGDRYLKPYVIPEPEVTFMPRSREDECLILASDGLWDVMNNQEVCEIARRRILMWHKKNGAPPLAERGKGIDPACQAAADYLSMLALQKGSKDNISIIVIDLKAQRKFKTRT
Text: (§1) The protein HAB1, a type 2 protein phosphatase (PP2C), is inhibited by PYR/PYL proteins in dependence of abscisic acid or other agonists. The potency of an agonist correlates with the level of inhibition of the PP2C, and therefore the IC50 (receptor-HAB1) can be used to compare the relative activity of different chemical analogues. Since inhibition of PP2C correlates to inhibition of seed-germination and increase in plant water-use efficiency, it serves as a powerful tool to quantify biological potential of a chemical acting as an analogue of abscisic acid.
(§2) HAB1 and PYL proteins were expressed and purified as described in Park et al. ((2009) Science 324(5930):1068-1071), with minor modifications. GST-HAB1 was produced by expression in BL21[DE3]pLysS host cells with an expression clone containing the HAB1 cDNA cloned into pGex-2T. Transformed E. coli cells were pre-cultured overnight, transferred to LB medium and cultured at 30° C. to culture A600 of ˜0.5 OD units. The culture was then cooled on ice and MnCl2 added to 4 mM and IPTG added to 0.3 mM. After 16 hours incubation at 15° C., cells were harvested and recombinant proteins were purified on glutathione agarose as described in Park et al. To obtain 6×His-PYL receptor fusion proteins, we used expression constructs previously described by Okamoto et al. 2013, (PNAS 110(29): 12132-12137).
(§3) PP2C activity assays using recombinant receptors and PP2Cs were carried out as follows: purified proteins were pre-incubated in 160 μl assay buffer containing (100 mM Tris-HCl-pH7.9, 100 mM NaCl, 3 μg bovine serum albumin and 0.1% 2-mercaptoethanol), 1 mM MnCl2 with carrier solvent (DMSO), quinabactin or quinabactin analogs (compounds of the present invention) for 30 minutes at room temperature. Reactions were started by adding 40 μL of a reaction solution containing 25 mM 4-nitrophenyl phosphate in assay buffer, after which absorbance measurements were immediately collected (405 nm) using a Wallac plate reader. […] Inhibition is indicated by reduced PP2C activity, which is expressed as a percentage of the control PP2C activity values that were obtained from assays containing carrier solvent instead but no test compound.

PYL2-HAB1 = target: T2, PYL2-HAB1 (Arabidopsis thaliana, UniProt O80992); test: PP2C activity assay, PYL2-HAB1 inhibition; settings: for percent inhibition at 0.2 µM: 200 nM test compound, 100 nM HAB1 PP2C, 200 nM receptor, read-out: % Inhibition of PYR/PYL-HAB1 at 200 nM: PYL2; for IC50: dose response in triplicate, non-linear regression
T2 construct: 6xHis (N); made in house; host or cells: E. coli BL21[DE3]pLysS (stated for GST-HAB1)
T2 sequence (O80992 1-190): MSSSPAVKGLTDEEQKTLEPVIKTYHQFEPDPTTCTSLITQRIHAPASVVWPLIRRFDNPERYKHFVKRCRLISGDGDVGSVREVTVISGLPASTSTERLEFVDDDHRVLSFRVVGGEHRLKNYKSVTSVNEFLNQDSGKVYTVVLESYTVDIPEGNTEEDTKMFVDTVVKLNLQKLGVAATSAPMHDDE
T2 sequence (Q9CAJ0 23-511 partner): T1 sequence (Q9CAJ0 23-511 partner)
Text: as §1, §2, §3

PYL1-HAB1 = target: T3, PYL1-HAB1 (Arabidopsis thaliana, UniProt Q8VZS8); test: PP2C activity assay, PYL1-HAB1 inhibition; settings: 200 nM test compound, 100 nM HAB1 PP2C, 200 nM receptor; read-out: % Inhibition of PYR/PYL-HAB1 at 200 nM: PYL1
T3 construct: 6xHis (N); made in house; host or cells: E. coli BL21[DE3]pLysS (stated for GST-HAB1)
T3 sequence (Q8VZS8 1-221): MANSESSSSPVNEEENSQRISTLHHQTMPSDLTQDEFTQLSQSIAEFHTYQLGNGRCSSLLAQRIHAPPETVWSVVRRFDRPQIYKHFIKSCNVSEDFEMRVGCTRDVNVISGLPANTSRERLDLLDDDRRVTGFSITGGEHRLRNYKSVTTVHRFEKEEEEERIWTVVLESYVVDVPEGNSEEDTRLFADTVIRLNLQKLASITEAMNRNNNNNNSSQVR
T3 sequence (Q9CAJ0 23-511 partner): T1 sequence (Q9CAJ0 23-511 partner)
Text: as §1, §2
PP2C activity assays using recombinant receptors and PP2Cs were carried out as follows: purified proteins were pre-incubated in 160 μl assay buffer containing (100 mM Tris-HCl-pH7.9, 100 mM NaCl, 3 μg bovine serum albumin and 0.1% 2-mercaptoethanol), 1 mM MnCl2 with carrier solvent (DMSO), quinabactin or quinabactin analogs (compounds of the present invention) for 30 minutes at room temperature. Reactions were started by adding 40 μL of a reaction solution containing 25 mM 4-nitrophenyl phosphate in assay buffer, after which absorbance measurements were immediately collected (405 nm) using a Wallac plate reader. Reactions contained 100 nM HAB1 PP2C and 200 nM receptor and 200 nM test compound. Inhibition is indicated by reduced PP2C activity, which is expressed as a percentage of the control PP2C activity values that were obtained from assays containing carrier solvent instead but no test compound.

Row | SMILES | activity at 0.2 µM (PYR1-HAB1) [%] | percent inhibition at 0.2 µM (PYL2-HAB1) [%] | activity at 0.2 µM (PYL1-HAB1) [%] | IC50 (PYR1-HAB1) [nM] | IC50 (PYL2-HAB1) [nM]
1 | CCCN1C(=O)CCc2cc(NS(=O)(=O)Cc3ccc(Cl)cc3Br)cc(F)c21 [HQ9] | 105 | 92.2 | 86.9 | – | –
2 | CCCN1C(=O)CCc2cc(NS(=O)(=O)Cc3ccc(C#N)cc3)cc(F)c21 [HQ10] | 39.8 | 77.2 | 44.3 | – | –
3 | CCCN1C(=O)CCc2cc(NS(=O)(=O)Cc3ccc(C#N)cc3F)cc(F)c21 [HQ11] | 28.8 | 73.5 | 27.9 | 61.2 | 317
4 | CCCN1C(=O)CCc2cc(NS(=O)(=O)Cc3ccccc3C#N)cc(F)c21 [HQ12] | 106 | 94.5 | 82.4 | – | –
5 | CCCN1C(=O)CCc2cc(NS(=O)(=O)Cc3ccc(F)cc3Cl)cc(F)c21 [HQ13] | 110 | 94.1 | 88.2 | – | –
6 | CCCN1C(=O)CCc2cc(NS(=O)(=O)Cc3ccc(C(=O)OC)cc3)cc(F)c21 [HQ14] | 62.6 | 91.8 | 78.9 | – | –
7 | CCCN1C(=O)CCc2cc(NS(=O)(=O)Cc3ccccc3Br)cc(F)c21 [HQ20] | 97.4 | 94.1 | 84.7 | – | –
8 | CCCN1C(=O)CCc2cc(NS(=O)(=O)Cc3ccc(Cl)cc3Cl)cc(F)c21 [HQ22] | 91.5 | 86.3 | 70.6 | – | –
9 | CCCN1C(=O)CCc2cc(NS(=O)(=O)Cc3cccc(Br)c3)cc(F)c21 [HQ23] | 90.8 | 87.8 | 85.7 | – | –
10 | CCCN1C(=O)CCc2cc(NS(=O)(=O)Cc3ccc([N+](=O)[O-])cc3)cc(F)c21 [HQ24] | 69 | 76.5 | 53.2 | – | –
11 | CCCN1C(=O)CCc2cc(NS(=O)(=O)Cc3ccccc3)cc(F)c21 [HQ26] | 63.6 | 74.8 | 51.4 | – | –
12 | CCCN1C(=O)CCc2cc(NS(=O)(=O)Cc3ccc(C)cc3)ccc21 [Quinabactin] | 22 | 44 | 23 | 104 | 262

Continued, values first:

Row | activity at 0.2 µM (PYR1-HAB1) [%] | percent inhibition at 0.2 µM (PYL2-HAB1) [%] | activity at 0.2 µM (PYL1-HAB1) [%] | IC50 (PYR1-HAB1) [nM] | IC50 (PYL2-HAB1) [nM] | SMILES
13 | 54.8 | 70.1 | 47.6 | – | – | CCCN1C(=O)CCc2cc(NS(=O)(=O)Cc3ccc(OC(F)(F)F)cc3)cc(F)c21 [HQ15]
14 | 52 | 53.9 | 38.5 | – | – | CCCN1C(=O)CCc2cc(NS(=O)(=O)Cc3ccc(C(F)(F)F)cc3)cc(F)c21 [HQ16]
15 | 104 | 88.2 | 88.1 | – | – | CCCN1C(=O)CCc2cc(NS(=O)(=O)Cc3cccc(C(F)(F)F)c3)cc(F)c21 [HQ17]
16 | 35 | 46.7 | 34.2 | 63.3 | 102 | CCCN1C(=O)CCc2cc(NS(=O)(=O)Cc3ccc(Cl)cc3)cc(F)c21 [HQ18]
17 | 82.7 | 82.3 | 73.4 | – | – | CCCN1C(=O)CCc2cc(NS(=O)(=O)Cc3ccc(C(F)(F)F)nc3)cc(F)c21 [HQ19]
18 | 62.4 | 63.7 | 48.2 | – | – | CCCN1C(=O)CCc2cc(NS(=O)(=O)Cc3cccc(F)c3)cc(F)c21 [HQ21]
19 | 33.8 | 42.8 | 20.8 | 75 | 77 | CCCN1C(=O)CCc2cc(NS(=O)(=O)Cc3ccc(Br)cc3)cc(F)c21 [HQ25]
20 | 90 | 88 | 79.8 | – | – | CCCN1C(=O)CCc2cc(NS(=O)(=O)Cc3cccc(Cl)c3)cc(F)c21 [HQ27]
